Numbered stars: 1 amine (or outer) side, 2 acyl side, 3 side chain; on linkers, the order of the positions; unused ones are H or OH. Bridge positions count the residues as written; N and C are the ends. Peptide text beside a SMILES is read from it. * marks the point of attachment. X1 = O=C(O)CN1CCN(CC(=O)O)CCN(CC(=O)N2CCN(Cc3cc(C[*:1])cc(C[*:2])c3)CC2)CCN(CC(=O)O)CC1; Hexanoyl = CCCCCC(=O)*
Assay: Plasma stability
Assay type: in vitro ADME
Conditions: 10 µM, 37°C, UHPLC-QTOF MS with internal standard
Method: FAP-2287 was incubated in 50 µL of plasma with 3.8% sodium citrate as anticoagulant at a concentration of 10 µM. After 1, 2, 4, and 24 hours incubation at 37°C a suitable internal standard was added. FAP-2287 with plasma proteins were precipitated using 250 µL of a precipitation agent consisting of 1% trifluoroacetic acid in acetonitrile. Precipitation was carried out at room temperature for 30 minutes. After centrifugation at 18,200 relative centrifugal force (rcf) for 5 minutes, 100 µL of the supernatant was mixed with 100 µL of 1% formic acid.
A nonincubated plasma sample spiked with 10 µM sample concentration was prepared in the same way and was used as the reference. A pure plasma sample was incubated for 24 hours as a blank sample. A further pure plasma sample was incubated for 24 hours, processed as described above and spiked directly before analysis to determine the recovery. The samples were analyzed using an Agilent 1290 UHPLC system coupled to an Agilent 6530 QTOF mass spectrometer.
For the quantitative data analysis, the Agilent Quantitative Analysis B.08.00 software (RRID:SCR_015040) was used. The ion currents of the triply charged proton adducts of the compounds were extracted with a mass window of ±50 parts per million and the chromatographic peak was integrated. The concentration of the compound was determined by external matrix calibration with internal standard using 6 calibration samples (1, 2.5, 5, 7.5, 10, and 12.5 µM). A quadratic regression was performed. Carryover was determined by analyzing the blank sample directly after the highest calibration sample and comparing the determined peak areas. Recovery was calculated as the ratio between the spiked concentration of the recovery sample and the concentration calculated from the peak area of this sample.

SMILES: CCCCCC(=O)N[C@H]1CSCc2cc(cc(CN3CCN(C(=O)CN4CCN(CC(=O)O)CCN(CC(=O)O)CCN(CC(=O)O)CC4)CC3)c2)CSC[C@@H](C(=O)N[C@@H](CC(=O)O)C(N)=O)NC(=O)[C@H](Cc2ccccc2)NC(=O)[C@H](CCC(N)=O)NC(=O)[C@H]([C@@H](C)O)NC(=O)[C@@H]2CCCN2C(=O)[C@@H]2CCCN2C1=O [natLu-FAP-2287, metal not drawn] (Hexanoyl-CPPTQFCD-NH2; linker 1-7 via X1; N-terminus and C-terminus assumed)
- Plasma Stability (24 h) Human Plasma (human plasma with 3.8% sodium citrate): > 80%
- Plasma Stability (24 h) Mouse Plasma (mouse plasma with 3.8% sodium citrate): > 80%
